Results as given in ChEMBL document CHEMBL4387721, “Proteolysis targeting chimeras (PROTACs) in 'beyond rule-of-five' chemical space: Recent progress and future challenges” (Bioorg Med Chem Lett, 2019).

Columns and labels:
Assay type in all cases: cell-based
[1] = target: T1, Protein cereblon/Peptidyl-prolyl cis-trans isomerase FKBP1A (Homo sapiens, UniProt P62942+Q96SW2); experiment: Protac activity at CRBN/FKBP12 in human Jurkat cells assessed as induction of FKBP12 protein degradation incubated for 12 hrs by immunoblot method
Target sequence in this assay (P62942 whole entry): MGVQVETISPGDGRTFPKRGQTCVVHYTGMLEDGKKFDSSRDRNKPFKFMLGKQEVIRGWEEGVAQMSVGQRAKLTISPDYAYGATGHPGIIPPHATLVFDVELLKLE
Target sequence in this assay (Q96SW2 whole entry): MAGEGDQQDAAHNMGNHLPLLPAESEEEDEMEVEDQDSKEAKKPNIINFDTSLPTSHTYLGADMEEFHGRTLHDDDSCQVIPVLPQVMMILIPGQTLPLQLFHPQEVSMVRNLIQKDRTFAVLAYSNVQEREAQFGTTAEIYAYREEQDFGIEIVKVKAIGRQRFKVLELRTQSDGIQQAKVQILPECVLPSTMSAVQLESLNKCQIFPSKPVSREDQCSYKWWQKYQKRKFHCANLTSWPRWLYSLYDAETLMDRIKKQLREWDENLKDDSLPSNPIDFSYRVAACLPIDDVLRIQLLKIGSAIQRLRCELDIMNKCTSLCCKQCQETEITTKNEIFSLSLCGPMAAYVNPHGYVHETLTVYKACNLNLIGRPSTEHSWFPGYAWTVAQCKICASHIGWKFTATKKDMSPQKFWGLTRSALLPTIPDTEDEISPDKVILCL

[2] = target: T1, Protein cereblon/Peptidyl-prolyl cis-trans isomerase FKBP1A; experiment: Protac activity at CRBN/FKBP12 in human Jurkat cells assessed as induction of FKBP12 protein degradation up to 1000 nM incubated for 12 hrs by immunoblot method relative to control
Target sequence in this assay (P62942 2-108 limits assumed): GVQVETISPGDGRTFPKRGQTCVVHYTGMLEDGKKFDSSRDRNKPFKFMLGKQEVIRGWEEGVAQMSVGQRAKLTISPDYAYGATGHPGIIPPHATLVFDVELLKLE
Target sequence in this assay (Q96SW2 whole entry partner): as the sequence (Q96SW2 whole entry) above

[3] = target: T2, von Hippel-Lindau disease tumor suppressor/Tyrosine-protein kinase ABL1 (Homo sapiens, UniProt P00519+P40337); experiment: Protac activity at VHL/c-ABL in human K562 cells assessed as induction of c-ABL protein degradation incubated for 24 hrs by immunoblot method
Target sequence in this assay (P00519 whole entry): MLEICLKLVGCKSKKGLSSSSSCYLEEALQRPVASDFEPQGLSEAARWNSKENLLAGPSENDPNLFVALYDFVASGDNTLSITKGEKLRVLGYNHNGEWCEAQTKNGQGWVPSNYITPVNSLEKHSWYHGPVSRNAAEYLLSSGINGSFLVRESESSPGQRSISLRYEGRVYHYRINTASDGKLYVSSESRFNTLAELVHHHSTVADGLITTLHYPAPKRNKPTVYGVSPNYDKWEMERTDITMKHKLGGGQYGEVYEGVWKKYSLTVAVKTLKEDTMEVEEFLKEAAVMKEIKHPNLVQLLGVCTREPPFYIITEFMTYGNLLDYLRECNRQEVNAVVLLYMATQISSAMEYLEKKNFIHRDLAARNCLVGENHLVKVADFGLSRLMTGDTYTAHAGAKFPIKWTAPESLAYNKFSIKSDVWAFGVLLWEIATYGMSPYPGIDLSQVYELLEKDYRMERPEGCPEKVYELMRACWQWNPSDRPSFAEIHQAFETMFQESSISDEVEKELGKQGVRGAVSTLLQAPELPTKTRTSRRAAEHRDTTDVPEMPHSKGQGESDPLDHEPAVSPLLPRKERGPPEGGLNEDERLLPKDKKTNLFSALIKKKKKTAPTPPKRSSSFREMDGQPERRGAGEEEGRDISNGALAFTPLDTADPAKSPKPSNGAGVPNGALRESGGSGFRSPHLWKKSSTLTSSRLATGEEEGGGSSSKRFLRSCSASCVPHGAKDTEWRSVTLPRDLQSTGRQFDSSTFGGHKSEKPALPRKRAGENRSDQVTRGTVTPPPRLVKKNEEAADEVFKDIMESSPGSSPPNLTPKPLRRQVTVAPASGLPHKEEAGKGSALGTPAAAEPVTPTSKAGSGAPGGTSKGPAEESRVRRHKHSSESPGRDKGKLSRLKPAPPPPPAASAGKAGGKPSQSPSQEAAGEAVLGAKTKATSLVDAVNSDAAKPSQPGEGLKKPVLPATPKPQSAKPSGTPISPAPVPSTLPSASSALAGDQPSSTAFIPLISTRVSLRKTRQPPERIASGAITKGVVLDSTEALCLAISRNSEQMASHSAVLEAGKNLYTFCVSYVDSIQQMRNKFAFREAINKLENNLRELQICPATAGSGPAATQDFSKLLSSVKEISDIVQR
Target sequence in this assay (P40337 whole entry): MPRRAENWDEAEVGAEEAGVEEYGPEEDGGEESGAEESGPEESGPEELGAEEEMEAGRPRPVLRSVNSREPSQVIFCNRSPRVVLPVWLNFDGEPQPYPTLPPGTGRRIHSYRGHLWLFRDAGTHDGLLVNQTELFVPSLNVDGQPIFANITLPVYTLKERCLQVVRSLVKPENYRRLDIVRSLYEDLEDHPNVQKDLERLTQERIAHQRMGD

[4] = target: T2, von Hippel-Lindau disease tumor suppressor/Tyrosine-protein kinase ABL1; experiment: Protac activity at VHL/c-ABL in human K562 cells assessed as induction of c-ABL protein degradation at 1 uM incubated for 24 hrs by immunoblot method relative to control
Target sequence in this assay (P00519 whole entry, looked up): as the sequence (P00519 whole entry) above
Target sequence in this assay (P40337 whole entry, looked up): as the sequence (P40337 whole entry) above

| Compound | DC50 [1] [µM] | Emax [2] [%] | DC50 [3] [µM] | Emax [4] [%] |
| --- | --- | --- | --- | --- |
| CO[C@H]1C[C@@H]2CC[C@@H](C)[C@@](O)(O2)C(=O)C(=O)N2CCCC[C@H]2C(=O)O[C@H]([C@H](C)C[C@@H]2CC[C@@H](OCCOCc3cn(CCOCCOCCNc4cccc5c4C(=O)N(C4CCC(=O)NC4=O)C5=O)nn3)[C@H](OC)C2)CC(=O)[C@H](C)/C=C(\C)[C@@H](O)[C@@H](OC)C(=O)[C@H](C)C[C@H](C)/C=C/C=C/C=C/1C (some centres undefined) | 0.0003 | > 95 | – | – |
| Cc1nc(Nc2ncc(C(=O)Nc3c(C)cccc3Cl)s2)cc(N2CCN(CCCCCCOCCOCCOCCCCCC(=O)N[C@H](C(=O)N3C[C@H](O)C[C@H]3C(=O)NCc3ccc(-c4scnc4C)cc3)C(C)(C)C)CC2)n1 | – | – | 1 | > 65 |
